According to patent US20110245293A1, “PHARMACEUTICAL PRODUCT COMPRISING A MUSCARINIC RECEPTOR ANTAGONIST AND A BETA-2-ADRENOCEPTOR AGONIST” (priority 2008, published 2011):
Structures can show the parent of a compound that is named as a salt.

How the values were obtained:
[1] = target: T1, Adrenergic β2 (Homo sapiens, UniProt P07550); test: Adrenergic β2 mediated cAMP production in H292 cells (AlphaScreen); format: cell-based; conditions: Intrinsic Activity as a fraction relative to the maximum activity of formoterol
T1 construct: endogenous in cells; host or cells: H292 cells
T1 sequence (P07550 whole entry): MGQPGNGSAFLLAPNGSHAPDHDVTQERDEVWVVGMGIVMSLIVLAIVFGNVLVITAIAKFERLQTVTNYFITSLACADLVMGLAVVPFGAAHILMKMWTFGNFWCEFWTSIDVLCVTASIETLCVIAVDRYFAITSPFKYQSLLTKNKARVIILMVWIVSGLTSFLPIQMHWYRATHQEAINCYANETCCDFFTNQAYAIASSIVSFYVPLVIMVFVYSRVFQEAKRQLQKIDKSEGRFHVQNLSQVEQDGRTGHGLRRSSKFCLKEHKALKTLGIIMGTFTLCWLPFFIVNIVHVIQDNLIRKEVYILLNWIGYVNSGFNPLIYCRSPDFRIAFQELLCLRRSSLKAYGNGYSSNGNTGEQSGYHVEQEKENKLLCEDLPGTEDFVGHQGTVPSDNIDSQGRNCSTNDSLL
Protocol: Adrenergic β2 Mediated cAMP Production
H292 cells were grown in 225 cm2 flasks incubator at 37° C., 5% CO2 in RPMI medium containing, 10% (v/v) FBS (foetal bovine serum) and 2 mM L-glutamine.
Adherent H292 cells were removed from tissue culture flasks by treatment with Accutase™ cell detachment solution for 15 minutes. Flasks were incubated for 15 minutes in a humidified incubator at 37° C., 5% CO2. Detached cells were re-suspended in RPMI media (containing 10% (v/v) FBS and 2 mM L-glutamine) at 0.05×10^6 cells per mL. 5000 cells in 100 μL were added to each well of a tissue-culture-treated 96-well plate and the cells incubated overnight in a humidified incubator at 37° C., 5% CO2. The culture media was removed and cells were washed twice with 100 μL assay buffer and replaced with 50 μL assay buffer (HBSS solution containing 10 mM HEPES pH7.4 and 5 mM glucose). Cells were rested at room temperature for 20 minutes after which time 25 μL of rolipram (1.2 mM made up in assay buffer containing 2.4% (v/v) dimethylsulphoxide) was added. Cells were incubated with rolipram for 10 minutes after which time Compound A was added and the cells were incubated for 60 minutes at room temperature. The final rolipram concentration in the assay was 300 μM and final vehicle concentration was 1.6% (v/v) dimethylsulphoxide. The reaction was stopped by removing supernatants, washing once with 100 μL assay buffer and replacing with 50 μL lysis buffer. The cell monolayer was frozen at −80° C. for 30 minutes (or overnight).
The concentration of cAMP (cyclic adenosine monophosphate) in the cell lysate was determined using AlphaScreen™ methodology. […] The AlphaScreen™ signal was measured using an EnVision spectrophotometer (Perkin-Elmer Inc.) with the recommended manufacturer's settings. cAMP concentrations were determined by reference to a calibration curve determined in the same experiment using standard cAMP concentrations. […] Intrinsic Activity was expressed as a fraction relative to the maximum activity determined for formoterol in each experiment.

[2] = Gravimetric Vapour Sorption (GVS) of crystalline material; format: physicochemical; conditions: at 80% RH
Protocol: Gravimetric Vapour Sorption (GVS) profiles were measured using a Surface Measurements Systems Dynamic Vapour Sorption DVS-1 or a DVS Advantage instrument. The solid sample ca. 1-5 mg was placed into a glass vessel and the weight of the sample was recorded during a dual cycle step method (40 to 90 to 0 to 90 to 0% relative humidity (RH), in steps of 10% RH).

[3] = Dynamic vapour sorption (DVS) analysis of crystalline material; format: physicochemical; conditions: at 80% RH, 25° C.
Protocol: Dynamic vapour sorption (DVS) analysis was performed on a Surface Measurement systems (SMS) DVS-Intrinsic moisture sorption analyser. The instrument was controlled by SMS Analysis Suite software (DVS-Intrinsic Control v1.0.0.30). Analysis of the data was performed using Microsoft Excel 2007 together DVS Standard Analysis Suite (v6.0.0.7). Sample temperature was maintained at 25° C. and the sample humidity was obtained by mixing streams of wet and dry nitrogen at a total flow rate of 200 mlmin^−1. The relative humidity was measured using a calibrated Rotronic probe (dynamic range 1-100% Relative Humidity (RH)) located close to the sample. The weight change of the sample as a function of % RH was constantly monitored by the microbalance (accuracy±0.005 mg). Typically a PXRD would be run prior to analysis. 20 mg of sample was then placed in a tared stainless steel mesh basket under ambient conditions. The sample was loaded and unloaded at 40% RH and 25° C. (typical room conditions) and the sample subjected to a graduated DVS regime over 2 cycles using the parameters shown in Table 1.

| SMILES | β2 Int Act [1] | GVS mass increase [2] | also measured |
| --- | --- | --- | --- |
| O=c1[nH]c2c(O)ccc([C@@H](O)CNCCSCCCNCCc3ccccc3Cl)c2s1 [BA3, 7-[(1R)-2-({2-[(3-{[2-(2-Chlorophenyl)ethyl]amino}propyl)thio]ethyl}amino)-1-hydroxyethyl]-4-hydroxy-1,3-benzothiazol-2(3H)-one dihydrobromide] | 0.8 |  |  |
| CCN(CC)CCN(CCNCCc1ccc(O)c2[nH]c(=O)sc12)C(=O)CCOCCc1cccc2ccccc12 [BA1, N-[2-(Diethylamino)ethyl]-N-(2-{[2-(4-hydroxy-2-oxo-2,3-dihydro-1,3-benzothiazol-7-yl)ethyl]amino}ethyl)-3-[2-(1-naphthyl)ethoxy]propanamide dihydrobromide] | 0.8 |  |  |
| Cc1ccc(O[C@H]2C[N+]3(Cc4cc(C(O)(c5ccccc5)c5ccccc5)no4)CCC2CC3)cc1F.[Br-] [Example 7, (R)-3-(3-Fluoro-4-methyl-phenoxy)-1-[3-(hydroxy-diphenyl-methyl)-isoxazol-5-ylmethyl]-1-azonia-bicyclo[2.2.2]octane bromide] |  | approximately 0.1% |  |
| O[C@](c1ccccc1)(c1cc(C[N+]23CCC(CC2)[C@@H](Oc2cccc(F)c2)C3)on1)C1CCCCC1.[Cl-] [Example 3, (R)-1-[3-((R)-Cyclohexyl-hydroxy-phenyl-methyl)-isoxazol-5-ylmethyl]-3-(3-fluoro-phenoxy)-1-azonia-bicyclo[2.2.2]octane chloride] |  |  | GVS mass increase 1st cycle ([2]; 1st cycle): approximately 5%; GVS mass increase 2nd cycle ([2]; 2nd cycle): ~6.5% |
| CCN(CC)CCN(CCNCCc1ccc(O)c2[nH]c(=O)sc12)C(=O)CCOCCc1cccc(Cl)c1 [BA2, N-[2-(Diethylamino)ethyl]-N-(2-{[2-(4-hydroxy-2-oxo-2,3-dihydro-1,3-benzothiazol-7-yl)ethyl]amino}ethyl)-3-[2-(3-chlorophenyl)ethoxy]propanamide dihydrobromide] | 0.7 |  |  |
| O[C@](c1ccccc1)(c1cc(C[N+]23CCC(CC2)[C@@H](Oc2cccc(F)c2)C3)on1)C1CCCCC1 [Example 4, (R)-1-[3-((R)-Cyclohexyl-hydroxy-phenyl-methyl)-isoxazol-5-ylmethyl]-3-(3-fluoro-phenoxy)-1-azonia-bicyclo[2.2.2]octane 2-hydroxy-ethanesulfonate] |  | no mass increase |  |
| O=S(=O)([O-])c1ccccc1.O[C@](c1ccccc1)(c1cc(C[N+]23CCC(CC2)[C@@H](Oc2ccc(F)cc2)C3)on1)C1CCCCC1 [Example 2, (R)-1-[3-((R)-Cyclohexyl-hydroxy-phenyl-methyl)-isoxazol-5-ylmethyl]-3-(4-fluoro-phenoxy)-1-azonia-bicyclo[2.2.2]octane benzenesulfonate] |  |  | DVS weight increase [3]: 0.2 % (% w/w) |
| O[C@](c1ccccc1)(c1nnc(C[N+]23CCC(CC2)[C@@H](Oc2ccc(F)cc2)C3)o1)C1CCCCC1.[Br-] [Example 5, (R)-1-[5-((R)-Cyclohexyl-hydroxy-phenyl-methyl)-[1,3,4]oxadiazol-2-ylmethyl]-3-(4-fluoro-phenoxy)-1-azonia-bicyclo[2.2.2]octane bromide] |  | approximately 0.8% |  |
